Where two headings read alike, the source gives them in different places. One block for each compound: values may come before it.
How the values were obtained:
[1] = pH modulation assay of avidin and streptavidin on biotin-PE bilayers (turn on / turn off); type: binding; details: 1 μM protein
Text: In addition to being able to detect negatively charged proteins, experiments have also been performed showing that our pH modulation assay can detect positively charged proteins. In this case, the sensor works as a “turn off” rather than as a “turn on” sensor. To investigate this, the binding of avidin, which is a positively charged macromolecule, was studied. The conditions were similar to those described above except where explicitly stated. Under all conditions, a saturation concentration of avidin or streptavidin was employed (1 μM). The bilayers each contained 1 mol % biotin-PE and 0.03 mol % ortho-Texas Red® DHPE.
However, upon adding 20 mol % DOPS (a negatively charged lipid) to the membrane, the assay was rerun at pH 9.25. Under these conditions, it detects avidin in a “turn off” mode and streptavidin in a “turn on” mode.

[2] = literature values; cited from earlier work
[3] = cited from earlier work; for τ0 (fluorescence lifetime): dye concentrations of about 10^−7 M; for φb (quantum yield of photobleaching) / μ (mean number of survived excitation cycles): in water at low irradiances; for μ (mean number of survived excitation cycles): μ calculated from φb
avidin = avidin (Gallus gallus, UniProt P02701); test: Homogeneous pH modulation assay in capillary tubes with Texas Red succinimidyl ester conjugated avidin; type: binding; details: for fluorescence intensity versus capillary without ligand: 3 μM ortho-Texas Red succinimidyl ester conjugated avidin, PBS pH 7.0
avidin, sequence (P02701 25-152, species assumed): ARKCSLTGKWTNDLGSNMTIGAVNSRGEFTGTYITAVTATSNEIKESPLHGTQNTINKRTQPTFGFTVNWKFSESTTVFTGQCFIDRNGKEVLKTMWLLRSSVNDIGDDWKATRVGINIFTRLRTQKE
Text: The pH modulation detection assay is amenable monitoring protein-small molecule and protein-protein interactions homogeneously in aqueous solution.
Avidin was labeled with Texas Red® succinimidyl ester as follows: The ortho isomer of Texas Red® succinimidyl ester was separated from the para isomer via thin layer chromatography utilizing silica plates (TLC Silica Gel 60 F254, EMD Chemicals) and 8:92 (methanol:chloroform) solvent. The separated band was removed from the plates with a razor and the ortho-Texas Red® succinimidyl ester was eluted from the silica with the same methanol/chloroform solvent. The dye (21 μg) was dried down with nitrogen in a 2 mL reactive vial containing a magnetic stir bar. To this reaction vial was added 0.5 mL of a 2 mg/mL avidin solution in 1 M sodium bicarbonate. This solution was allowed to stir for two hours at room temperature before being separated in a column containing Bio-Rad BioGel® Fine size purification resin in phosphate buffered saline (PBS, 10 mM potassium phosphate, 150 mM NaCl, 2 mM sodium azide, pH 7.2). This PBS was utilized as the elution buffer as well. The collected Texas-Red® succinimidyl ester-labeled avidin was utilized in the sensing experiments.
The two rectangular capillaries were passivated with a surface coating of bovine serum albumin (BSA). The BSA was then thoroughly rinsed away with phosphate buffered saline (10 mM Na2HPO4, 150 mM NaCl, pH 7.0). Next, a 3 μM solution of ortho-Texas Red® succinimidyl ester conjugated avidin was introduced in PBS into both capillaries. The right capillary additionally contained a 200 μM concentration of biotin (vitamin B7). A line scan across the micrograph is shown on the right. […] It should be noted that avidin is a positively charged protein and the biotin is […] in solution near pH 7.0. Therefore, the local pH near the protein surface is lowered when the small molecule binds.
As a control, the same set of experiments was run as in FIG. 38. However, this time the avidin was conjugated with para-Texas Red® succinimidyl ester (FIG. 39). […]

[4] = pH titration of Texas Red DHPE isomers in supported lipid bilayers (fluorescence); type: physicochemical
Experimental: The peak heights from the ortho-conjugated Texas Red® data in FIG. 5 may be used to obtain a titration curve for this isomer. […] To obtain the y-axis, the peak height at pH 3 was set to 1.0, and all other peak heights are relative to this value.
pH Titration and Buffer Preparation. […] These pH values were chosen to locate the pKA value of ortho-Texas Red® DHPE. The pH could be adjusted to the desired value by the dropwise addition of HCl or NaOH. The pH was measured with a standard glass electrode setup. […] Titration curves for the dye molecules in SLBs were obtained by systematically changing the pH of the bulk solution in a stepwise fashion. Fresh buffer was continuously flowed over the surface until no further changes in fluorescence intensity could be observed. […] Fluorescent micrographs of SLBs were captured with a standard epifluorescence microscope setup (Nikon Eclipse E800).
The fluorescence titration curve of the Texas Red® DHPE dye molecules was monitored in SLBs containing two narrow, parallel lines of bilayers with distinct dye chemistries. […] The second line was identical, but contained para-Texas Red® DHPE instead of the ortho isomer. The surrounding lipid matrix was a 1:1:1 mixture of DOPC, DPPC, and cholesterol.
In this case, however, a saturation concentration of IgG (500 nM) was first introduced into the bulk solution. Moreover, all fluorescence measurements as a function of pH were performed in the presence of 500 nM bulk protein concentration to ensure that the surface remained saturated with protein.
Titration Curves for ortho-Texas Red® DHPE. In a first set of experiments, the pH dependent responses of the ortho- and para-conjugated Texas Red® dyes were investigated in supported POPC bilayers with 0.5 mol % biotin-cap-PE. […] Bulk solutions at a given pH value were continuously flowed into the device until the fluorescence intensity remained constant. Fluorescence images at each pH value were then captured (FIG. 15a).
Titration Curve with a Saturated Protein Layer. […] First, two separated bilayer strips were formed as described above. […] All subsequent measurements were made by tuning the solution pH value, but keeping the bulk IgG concentration constant.

[5] = biotin/streptavidin binding, literature; cited from earlier work
[6] = pH 8.2, POPC, 1 mol % biotin-PE, 0.03 mol % ortho-Texas Red DHPE
[7] = pH 9.25, 20 mol % DOPS added to the membrane

Compound: avidin: positively charged biotin-binding protein
detection by the pH modulation assay [1, 6]: turn off mode
detection by the pH modulation assay [1, 7]: turn off
isoelectric point (pI) [2]: 10.4

Compound: Cc1cc(=O)[nH]c2cc(N)ccc12 [Carbostyril 124]
σ01 (λ) ([3]; 335 nm): 6.3 (335 nm) 10^−17 cm^2
τ0 (fluorescence lifetime) [3]: 5.0 ns
φb (quantum yield of photobleaching) [3]: 1.4 × 10^−3
μ (mean number of survived excitation cycles) [3]: 700

Compound: Cc1cc(=O)oc2c3c4c(cc12)CCCN4CCC3 [Coumarin 102]
σ01 (λ) ([3]; 397 nm): 7.0 (397 nm) 10^−17 cm^2
τ0 (fluorescence lifetime) [3]: 5.5 ns
φb (quantum yield of photobleaching) [3]: 4.3 × 10^−4
μ (mean number of survived excitation cycles) [3]: 2 300

fluorescence intensity versus capillary without ligand (avidin; 500 μM biotinylated BSA): approximately a factor of eight higher
Compound: biotinylated bovine serum albumin: biotinylated bovine serum albumin (BSA)

shift of apparent pKA to a more basic value ([4]; 20 mol % DOPS added to the membranes, with respect to FIG. 15b): 0.44 pH units
apparent pKA ([4]; SLB containing 0.5 mol % biotin-cap-PE on glass, pH 10.2 to 4.0, ortho/para ratio, FIG. 15b): 7.8±0.1
apparent shift of titration curve midpoint ([4]; saturated anti-biotin IgG layer (500 nM) versus no bound proteins): ~0.35 pH units
pKA of the dye ([4]; supported phospholipid bilayer, pH 3 to 11, FIG. 6): 7.8
Compound: ortho-sulforhodamine 101-DHPE [ortho-Texas Red® DHPE]
fluorescence intensity of the band as a function of bulk pH ([4]; POPC bilayers with 0.5 mol % biotin-cap-PE, pH 10.2 to 4.0): showed higher intensity at more acidic pH values

Compound: CN(C)c1ccc2c(-c3ccccc3C(=O)[O-])c3ccc(N(C)C)cc3[o+]c2c1 [TMR]
σ01 (λ) ([3]; 515 nm): 13.3 (515 nm) 10^−17 cm^2
τ0 (fluorescence lifetime) [3]: 2.3 ns
φb (quantum yield of photobleaching) [3]: 3.3 × 10^−7
μ (mean number of survived excitation cycles) [3]: 3 070 000

Compound: Coumarin 39
τ0 (fluorescence lifetime) [3]: 5.6 ns
φb (quantum yield of photobleaching) [3]: 1.2 × 10^−3
μ (mean number of survived excitation cycles) [3]: 800

Compound: O=C(O)CCCC[C@@H]1SC[C@@H]2NC(=O)N[C@@H]21 [biotin]
fluorescence intensity versus capillary without ligand (avidin; 200 μM biotin): approximately a factor of five higher
fluorescence difference between the two capillary tubes (avidin; avidin conjugated with para-Texas Red succinimidyl ester (control), saturation biotin): little if any fluorescence difference

Compound: CCNc1cc2oc(=O)cc(C(F)(F)F)c2cc1C [Coumarin 307]
σ01 (λ) ([3]; 397 nm): 5.4 (397 nm) 10^−17 cm^2
τ0 (fluorescence lifetime) [3]: 4.5 ns
φb (quantum yield of photobleaching) [3]: 1.5 × 10^−4
μ (mean number of survived excitation cycles) [3]: 6 500

Compound: Rhodamine 123
σ01 (λ) ([3]; 515 nm): 12.3 (515 nm) 10^−17 cm^2
τ0 (fluorescence lifetime) [3]: 4.0 ns
φb (quantum yield of photobleaching) [3]: 6.4 × 10^−7
μ (mean number of survived excitation cycles) [3]: 1 570 000

Compound: Cc1cc(=O)oc2cc(N)ccc12 [Coumarin 120]
σ01 (λ) ([3]; 365 nm): 3.9 (365 nm) 10^−17 cm^2
τ0 (fluorescence lifetime) [3]: 5.0 ns
φb (quantum yield of photobleaching) [3]: 3.4 × 10^−4
μ (mean number of survived excitation cycles) [3]: 3 000

Compound: streptavidin: negatively charged biotin-binding protein
detection by the pH modulation assay [1, 6]: does not detect
detection by the pH modulation assay [1, 7]: turn on
isoelectric point (pI) [2]: 6.4
Kd [5]: ~1 pM

Reference: patent US8815778B2, “PH modulation method to detect ligand-receptor binding” (The Texas A&M University System, priority 2008, dated 2014)
